One assay deals with neutrophil elastase (NE). In words: Bone marrow neutrophil elastase (NE) activity in lysates from mice of Example 1A. Format: in vivo, C57BL/6 mice. Particulars: vs vehicle treated control group. On the procedure:
Following euthanasia, bone marrow (from both femurs and tibias) were collected, lysed, and then snap frozen. The frozen tissue was stored at −80° C.
Bone Marrow Neutrophil Activity: The ability of INS1007 to reduce neutrophil activation in DSS-induced colitis in C57BL/6 mice was evaluated. The neutrophil activity of bone marrow extracts taken from the euthanized mice of Example 1A was observed.
All animals from Example 1A had both femurs and tibias removed and bone marrow was aspirated out with ice-cold using Roswell Park Memorial Institute (RPMI) buffer. Cell pellets were collected after red blood cell lysis and wash with PBS. […]
For neutrophil elastase (NE) activity assay, bone marrow cell lysates were added to 96-well black plate and incubated for 15 minutes in the presence of DMSO or NE inhibitor (Abcam, Cat #ab142154). […] The resulting fluorescence was measured at 350 nm excitation and 450 nm emission in a kinetic mode by reading every 5 minutes for up to 3 hours at 37° C. The fluorescence was read using a BioTek Synergy plate reader. The reaction rate was calculated with the initial slopes of the linear range and a standard curve for the natural mouse elastase amounts were plotted against their slopes. The net NE activity (in the unit of natural mouse elastase amount) by subtracting the NE inhibitor control wells from non-inhibited well were calculated based on the standard curve.

The subject of assay [1] is colitis induced by the adoptive transfer of sorted naïve T cells into RAG2−/− mice. In words: Adoptive T-Cell Transfer Colitis Model, Example 2 (survival, endoscopy, stool consistency, body weight). Format: in vivo. How it is done:
The efficacy of INS1007 in the treatment of colitis induced by the adoptive transfer of sorted naïve T cells into RAG2^−/− mice (“Adoptive T-Cell Transfer Colitis Model”) was evaluated. The Adoptive T-Cell Transfer Colitis Model is an immunological animal model of colitis that provides focused and detailed examination of T cell-mediated pathological mechanisms, and generally responds well to established clinical therapies such as anti-TNFα. The model is described in detail in D. V. Ostanin, et al., T cell transfer model of chronic colitis: concepts, considerations, and tricks of the trade. Am. J. Physiol. Gastrointest. Liver Physiol. 2009; 296(2): G135-46, which is hereby incorporated by reference in its entirety for all purposes.
Example 2 evaluated the effectiveness of INS1007 dosed at 0.3 mg/kg, 1.0 mg/kg, 3.0 mg/kg and 10 mg/kg in the Adoptive T-Cell Transfer Colitis Model. Vehicle (negative control) and an anti-p40 mAb antibody (positive control) were also evaluated.
Mice: Ninety-five (95) male RAG2^−/− mice (n=95) with an average starting body weight (±SEM) of 21.3±0.12 g were obtained from Taconic Biosciences (Germantown, N.Y.). Animals were acclimatized prior to study commencement. During this period, the animals were observed daily in order to reject any that presented in poor condition. Animals were fed with 5053 sterile rodent diet and water was provided ad libitum.
INS1007 Solutions: INS1007 was diluted with 0.5% Hydroxypropylmethylcellulose in Citrate buffer w/0.1% Tween 80 (pH 3.0). Solutions were stored at 4° C. INS1007 solutions were discarded after 3 days and fresh solutions were prepared.
Anti-p40 mAb solution: Anti-mouse IL-12 p40 (Clone: C17.8) obtained from BioXCell (Cat #: BE0051) was diluted with phosphate buffered saline. Solutions were stored at 4° C. Anti-mouse IL-12 p40 solutions were discarded after 7 days and fresh solutions were prepared.
Groups 1-2 were negative controls; groups 3-6 were treated with INS 1007 and Group 7 was treated with Anti-p40 mAb.
The study included two phases: a T-cell transfer colitis-induction period (T-cell engraftment in FIG. 14) and a treatment period (Veh/1007 TX in FIG. 14). Colitis was induced on Day 0 in 90 RAG2^−/− mice by IP injection (200 μL) of 0.5×10^6 CD44^−/CD62L^+ T-cells (in PBS) isolated and purified from C57Bl/6 […]. Donor cells were processed as follows. Whole spleens were excised from donor C57BL/6 mice and were immediately placed ice-cold PBS. The spleens were dissociated to yield a single cell suspension and the red blood cells were lysed. Spleens were then processed for CD4+ enrichment prior to CD44-CD62L^+ sorting using Miltenyi MACS columns.
Animals in Groups 1-6 were dosed via oral gavage (PO) twice daily (BID) from Days 14 to 41 with INS1007 Solution or vehicle, as indicated in Table 4. Animals in Group 7 were dosed via intraperitoneal (IP) injection once every third day (Q3D) from Day 14 to 39 with Anti-p40 mAb solution.
Animals were observed daily (weight morbidity, survival, presence of diarrhea and/or bloody stool) to assess differences among treatment groups and/or possible toxicity resulting from the treatments.
Each mouse, under isoflurane anesthesia, underwent video endoscopy on Days 14, 28, and 42 using a small animal endoscope (Karl Storz Endoskope, Germany), to assess colitis severity. During each endoscopic procedure, still images and video were recorded to evaluate the extent of colitis and the response to treatment. Colitis severity and Stool consistency were scored using the methods described in Examples 1 and 2. Following endoscopy on day 42, all animals from each treatment group were sacrificed. Following euthanasia, bone marrow (from both femurs and tibias) were collected, lysed, and then snap frozen. The frozen tissue was stored at −80° C.
Weight Loss: Weight loss calculated as a percentage of the starting weight on Day 0 was recorded in all treatment groups.

[2] abbreviates: Day 28, INS1007 1 mg/kg (Group 4).
[3] abbreviates: Day 28, INS1007 3 mg/kg (Group 5).
The mark [4] stands for this setting: Day 28, INS1007 10 mg/kg (Group 6).
The mark [5] stands for this setting: Day 42, INS1007 1 mg/kg (Group 4).
Where [6] appears, read: Day 42, INS1007 3 mg/kg (Group 5).
Where [7] appears, read: Day 42, INS1007 10 mg/kg (Group 6).

`Cn1c(=O)oc2ccc(-c3ccc(C[C@@H](C#N)NC(=O)[C@@H]4CNCCCO4)cc3)cc21` [INS1007, (2S)—N-{(1S)-1-cyano-2-[4-(3-methyl-2-oxo-2,3-dihydro-1,3-benzoxazol-5-yl)phenyl]ethyl}-1,4-oxazepane-2-carboxamide]: the “bone marrow neutrophil activity (NE activity)” value in the assay on neutrophil elastase (NE) (INS1007 1 mg/kg PO BID) and in the assay on neutrophil elastase (NE) (INS1007 10 mg/kg PO BID) was “significantly reduced” throughout. Besides, the “reduction in mean endoscopy score as compared to vehicle control (Group 2)” value in assay [1] (Day 14, INS1007 3 mg/kg (Group 5)) came to 22.2%; in assay [1] (setting [2]), 38.4%; in assay [1] (setting [3]), 39.5%; in assay [1] (setting [4]), 15.3%; in assay [1] (setting [5]) it was 33.5%; in assay [1] (setting [6]), 42.7%. Also, the “reduction in mean endoscopy score as compared to vehicle control (Group 2)” value in assay [1] (setting [7]) is on record as 35.0%. Further, the “mean stool consistency score vs vehicle control (Group 2)” value in assay [1] (setting [2]) was “reductions”; in assay [1] (setting [3]) it was “reductions”; in assay [1] (setting [4]) it was “reductions”; in assay [1] (setting [5]), “reductions”; in assay [1] (setting [6]), “reductions”; in assay [1] (setting [7]), “largest reductions”. Also, the “weight loss compared to vehicle control (Group 2), body weight carried forward” value in assay [1] (INS1007 3 mg/kg (Group 5), Days 0 to 42) is reported as “reduced”. For the same compound, the “survival vs vehicle control” value in assay [1] (INS1007 3 mg/kg (Group 5), log-rank test) is “significantly improved”. In assay [1] (INS1007 3 mg/kg PO BID Day 14 to 41 (Group 5), Days 0 to 42, vehicle control 53.3%), this compound registered a survival of 95.86%.

The values are drawn from patent US20210252015A1, “CERTAIN (2S)-N-[(1S)-1-CYANO-2-PHENYLETHYL]-1,4-OXAZEPANE-2-CARBOXAMIDES FOR TREATING INFLAMMATORY BOWEL DISEASE” (Insmed Incorporated, priority 2018, published 2021).
